Assay results as given in patent US12723063B2, “GIPR-agonist compounds” (Eli Lilly and Company, priority 2019, dated 2026).
*1 amine or outer side, *2 acyl side, *3 side chain or, on linkers, in order; H or OH if unused. Where a SMILES comes first, the peptide text is derived from it. Side-chain parts run from the residue outwards. [ ]: non-standard residue; d: D form. The star is where a group is joined. C20 diacid = O=C(O)CCCCCCCCCCCCCCCCCCC(=O)*; γGlu = O=C(O)[C@H](CCC(=O)[*:2])N[*:1]; αMeF = C[C@](N)(Cc1ccccc1)C(=O)O; 4Pal = N[C@@H](Cc1ccncc1)C(=O)O; αMeL = CC(C)C[C@](C)(N)C(=O)O; AEEA = NCCOCCOCC(=O)O; Aib = CC(C)(N)C(=O)O

What was measured:
human GIPR = target: T1, human GIPR (Homo sapiens, UniProt P48546); assay: [125I]-GIP binding, SPA with WGA beads, 0.1% bacitracin; conditions: geometric mean, read-out: hGIPR Ki
T1 construct: expressed in transfected cells; crude membranes
T1 sequence (P48546 22-466): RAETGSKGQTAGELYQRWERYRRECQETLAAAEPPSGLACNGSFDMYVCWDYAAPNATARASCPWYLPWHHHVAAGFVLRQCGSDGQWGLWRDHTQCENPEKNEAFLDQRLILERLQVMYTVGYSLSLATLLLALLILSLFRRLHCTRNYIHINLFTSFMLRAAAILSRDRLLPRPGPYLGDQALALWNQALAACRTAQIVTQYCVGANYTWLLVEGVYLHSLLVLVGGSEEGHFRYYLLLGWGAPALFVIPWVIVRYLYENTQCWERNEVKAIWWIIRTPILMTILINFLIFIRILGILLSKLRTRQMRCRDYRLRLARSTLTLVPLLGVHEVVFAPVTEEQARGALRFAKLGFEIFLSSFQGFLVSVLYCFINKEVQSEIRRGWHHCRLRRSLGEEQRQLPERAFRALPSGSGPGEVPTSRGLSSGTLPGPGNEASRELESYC
Procedure, shortened: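 Ki values are geometric means (SEM, n independent days), derived from four-parameter nonlinear regression of IC50. Membranes came from hGIPR-expressing CHO cells.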

[1] = target: T2, human glucose-dependent insulinotropic peptide receptor (GIPR) (Homo sapiens, UniProt P48546); assay: cAMP functional assay (HTRF) in HEK293 cells in presence of 0.1% casein; format: cell-based; conditions: HEK293 cells expressing human GIPR, geometric mean, read-out: hGIPR cAMP Rel EC50 nM (SEM, n)
T2 construct: expressed in transfected cells; host or cells: HEK293
T2 sequence (P48546 22-466): T1 sequence (P48546 22-466)

Row | Compound | Ki (human GIPR) | EC50 [1]
1 | CC[C@H](C)[C@H](NC(=O)[C@H](CO)NC(=O)[C@H](Cc1ccc(O)cc1)NC(=O)[C@H](CC(=O)O)NC(=O)[C@H](CO)NC(=O)[C@@H](NC(=O)[C@](C)(Cc1ccccc1)NC(=O)[C@@H](NC(=O)CNC(=O)[C@H](CCC(=O)O)NC(=O)C(C)(C)NC(=O)[C@@H](N)Cc1ccc(O)cc1)[C@@H](C)O)[C@@H](C)CC)C(=O)N[C@@H](C)C(=O)N[C@@H](CC(C)C)C(=O)N[C@@H](CC(=O)O)C(=O)N[C@@H](CCCCN)C(=O)N[C@@H](CCCCNC(=O)COCCOCCNC(=O)COCCOCCNC(=O)CC[C@H](NC(=O)CCCCCCCCCCCCCCCCCCC(=O)O)C(=O)O)C(=O)N[C@@H](Cc1c[nH]cn1)C(=O)N[C@@H](CCC(N)=O)C(=O)NC(C)(C)C(=O)N[C@@H](CC(=O)O)C(=O)N[C@@H](Cc1ccccc1)C(=O)N[C@H](C(=O)N[C@@H](CCC(=O)O)C(=O)N[C@@H](Cc1ccncc1)C(=O)N[C@@H](CC(C)C)C(=O)N[C@@H](CC(C)C)C(=O)N[C@@H](CCC(=O)O)C(=O)NCC(=O)NCC(=O)N1CCC[C@H]1C(=O)N[C@@H](CO)C(=O)N[C@@H](CO)C(=O)NCC(=O)N[C@@H](C)C(=O)N1CCC[C@H]1C(=O)N1CCC[C@H]1C(=O)N1CCC[C@H]1C(=O)N[C@@H](CO)C(N)=O)C(C)C [Example 44] (H-Y[Aib]EGT[αMeF]ISDYSIALDKK([AEEA-AEEA-γGlu-C20 diacid])HQ[Aib]DFVE[4Pal]LLEGGPSSGAPPPS-NH2) | 0.059 nM | 0.0084 nM
2 | CC[C@H](C)[C@H](NC(=O)[C@H](Cc1ccccc1)NC(=O)[C@@H](NC(=O)CNC(=O)[C@H](CCC(=O)O)NC(=O)C(C)(C)NC(=O)[C@@H](N)Cc1ccc(O)cc1)[C@@H](C)O)C(=O)N[C@@H](CO)C(=O)N[C@@H](CC(=O)O)C(=O)N[C@@H](Cc1ccc(O)cc1)C(=O)N[C@@H](CO)C(=O)N[C@H](C(=O)N[C@@](C)(CC(C)C)C(=O)N[C@@H](CC(C)C)C(=O)N[C@@H](CC(=O)O)C(=O)N[C@@H](CCCCN)C(=O)N[C@@H](CCCCNC(=O)COCCOCCNC(=O)COCCOCCNC(=O)CC[C@H](NC(=O)CCCCCCCCCCCCCCCCCCC(=O)O)C(=O)O)C(=O)N[C@@H](Cc1c[nH]cn1)C(=O)N[C@@H](CCC(N)=O)C(=O)NC(C)(C)C(=O)N[C@@H](CC(=O)O)C(=O)N[C@@H](Cc1ccccc1)C(=O)N[C@H](C(=O)N[C@@H](CCC(=O)O)C(=O)N[C@@H](Cc1ccncc1)C(=O)N[C@@H](CC(C)C)C(=O)N[C@@H](CC(C)C)C(=O)N[C@@H](CCC(=O)O)C(=O)N[C@H](C(=O)NCC(=O)N1CCC[C@H]1C(=O)N[C@@H](CO)C(=O)N[C@@H](CO)C(=O)NCC(=O)N[C@@H](C)C(=O)N1CCC[C@H]1C(=O)N1CCC[C@H]1C(=O)N1CCC[C@H]1C(=O)N[C@@H](CO)C(N)=O)[C@@H](C)O)C(C)C)[C@@H](C)CC [Example 45] (H-Y[Aib]EGTFISDYSI[αMeL]LDKK([AEEA-AEEA-γGlu-C20 diacid])HQ[Aib]DFVE[4Pal]LLETGPSSGAPPPS-NH2) | 0.0663 nM | 0.049 nM
3 | CC[C@H](C)[C@H](NC(=O)[C@H](Cc1ccccc1)NC(=O)[C@@H](NC(=O)CNC(=O)[C@H](CCC(=O)O)NC(=O)C(C)(C)NC(=O)[C@@H](N)Cc1ccc(O)cc1)[C@@H](C)O)C(=O)N[C@@H](CO)C(=O)N[C@@H](CC(=O)O)C(=O)N[C@@H](Cc1ccc(O)cc1)C(=O)N[C@@H](CO)C(=O)N[C@H](C(=O)N[C@@](C)(CC(C)C)C(=O)N[C@@H](CC(C)C)C(=O)N[C@@H](CC(=O)O)C(=O)N[C@@H](CCCCN)C(=O)N[C@@H](CCCCNC(=O)COCCOCCNC(=O)COCCOCCNC(=O)CC[C@H](NC(=O)CCCCCCCCCCCCCCCCCCC(=O)O)C(=O)O)C(=O)N[C@@H](Cc1c[nH]cn1)C(=O)N[C@@H](CCC(N)=O)C(=O)NC(C)(C)C(=O)N[C@@H](CC(=O)O)C(=O)N[C@@H](Cc1ccccc1)C(=O)N[C@H](C(=O)N[C@@H](CCC(=O)O)C(=O)N[C@@H](Cc1ccncc1)C(=O)N[C@@H](CC(C)C)C(=O)N[C@@H](CC(C)C)C(=O)N[C@@H](CCC(=O)O)C(=O)N[C@@H](CCC(N)=O)C(=O)NCC(=O)N1CCC[C@H]1C(=O)N[C@@H](CO)C(=O)N[C@@H](CO)C(=O)NCC(=O)N[C@@H](C)C(=O)N1CCC[C@H]1C(=O)N1CCC[C@H]1C(=O)N1CCC[C@H]1C(=O)N[C@@H](CO)C(N)=O)C(C)C)[C@@H](C)CC [Example 46] (H-Y[Aib]EGTFISDYSI[αMeL]LDKK([AEEA-AEEA-γGlu-C20 diacid])HQ[Aib]DFVE[4Pal]LLEQGPSSGAPPPS-NH2) | 0.0319 nM | 0.0294 nM
4 | CC[C@H](C)[C@H](NC(=O)[C@H](Cc1ccccc1)NC(=O)[C@@H](NC(=O)CNC(=O)[C@H](CCC(=O)O)NC(=O)C(C)(C)NC(=O)[C@@H](N)Cc1ccc(O)cc1)[C@@H](C)O)C(=O)N[C@@H](CO)C(=O)N[C@@H](CC(=O)O)C(=O)N[C@@H](Cc1ccc(O)cc1)C(=O)N[C@@H](CO)C(=O)N[C@H](C(=O)N[C@@](C)(CC(C)C)C(=O)N[C@@H](CC(C)C)C(=O)N[C@@H](CC(=O)O)C(=O)N[C@@H](CCCCN)C(=O)N[C@@H](CCCCNC(=O)COCCOCCNC(=O)COCCOCCNC(=O)CC[C@H](NC(=O)CCCCCCCCCCCCCCCCCCC(=O)O)C(=O)O)C(=O)N[C@@H](Cc1c[nH]cn1)C(=O)N[C@@H](CCC(N)=O)C(=O)NC(C)(C)C(=O)N[C@@H](CC(=O)O)C(=O)N[C@@H](Cc1ccccc1)C(=O)N[C@H](C(=O)N[C@@H](CCC(=O)O)C(=O)N[C@@H](Cc1ccncc1)C(=O)N[C@@H](CC(C)C)C(=O)N[C@@H](CC(C)C)C(=O)N[C@@H](CCC(=O)O)C(=O)NCC(=O)NCC(=O)N1CCC[C@H]1C(=O)N[C@@H](CO)C(=O)N[C@@H](CO)C(=O)NCC(=O)N[C@@H](C)C(=O)N1CCC[C@H]1C(=O)N1CCC[C@H]1C(=O)N1CCC[C@H]1C(=O)N[C@@H](CO)C(N)=O)C(C)C)[C@@H](C)CC [Example 47] (H-Y[Aib]EGTFISDYSI[αMeL]LDKK([AEEA-AEEA-γGlu-C20 diacid])HQ[Aib]DFVE[4Pal]LLEGGPSSGAPPPS-NH2) | 0.0452 nM | 0.0234 nM
5 | CC[C@H](C)[C@H](NC(=O)[C@H](Cc1ccccc1)NC(=O)[C@@H](NC(=O)CNC(=O)[C@H](CCC(=O)O)NC(=O)C(C)(C)NC(=O)[C@@H](N)Cc1ccc(O)cc1)[C@@H](C)O)C(=O)N[C@@H](CO)C(=O)N[C@@H](CC(=O)O)C(=O)N[C@@H](Cc1ccc(O)cc1)C(=O)N[C@@H](CO)C(=O)N[C@H](C(=O)N[C@@](C)(CC(C)C)C(=O)N[C@@H](CC(C)C)C(=O)N[C@@H](CC(=O)O)C(=O)N[C@@H](CCCCN)C(=O)N[C@@H](CCCCNC(=O)COCCOCCNC(=O)COCCOCCNC(=O)CC[C@H](NC(=O)CCCCCCCCCCCCCCCCCCC(=O)O)C(=O)O)C(=O)N[C@@H](Cc1c[nH]cn1)C(=O)N[C@@H](CCC(N)=O)C(=O)NC(C)(C)C(=O)N[C@@H](CC(=O)O)C(=O)N[C@@H](Cc1ccccc1)C(=O)N[C@H](C(=O)N[C@@H](CCC(=O)O)C(=O)N[C@@H](Cc1ccncc1)C(=O)N[C@@H](CC(C)C)C(=O)N[C@@H](CC(C)C)C(=O)N[C@@H](C)C(=O)NCC(=O)NCC(=O)N1CCC[C@H]1C(=O)N[C@@H](CO)C(=O)N[C@@H](CO)C(=O)NCC(=O)N[C@@H](C)C(=O)N1CCC[C@H]1C(=O)N1CCC[C@H]1C(=O)N1CCC[C@H]1C(=O)N[C@@H](CO)C(N)=O)C(C)C)[C@@H](C)CC [Example 48] | 0.0498 nM | 0.0166 nM
6 | CC[C@H](C)[C@H](NC(=O)[C@H](Cc1ccccc1)NC(=O)[C@@H](NC(=O)CNC(=O)[C@H](CCC(=O)O)NC(=O)C(C)(C)NC(=O)[C@@H](N)Cc1ccc(O)cc1)[C@@H](C)O)C(=O)N[C@@H](CO)C(=O)N[C@@H](CC(=O)O)C(=O)N[C@@H](Cc1ccc(O)cc1)C(=O)N[C@@H](CO)C(=O)N[C@H](C(=O)N[C@@](C)(CC(C)C)C(=O)N[C@@H](CC(C)C)C(=O)N[C@@H](CC(=O)O)C(=O)N[C@@H](CCCCN)C(=O)N[C@@H](CCCCNC(=O)COCCOCCNC(=O)COCCOCCNC(=O)CC[C@H](NC(=O)CCCCCCCCCCCCCCCCC(=O)O)C(=O)O)C(=O)N[C@@H](Cc1c[nH]cn1)C(=O)N[C@@H](CCC(N)=O)C(=O)NC(C)(C)C(=O)N[C@@H](CC(=O)O)C(=O)N[C@@H](Cc1ccccc1)C(=O)N[C@H](C(=O)N[C@@H](CCC(=O)O)C(=O)N[C@@H](Cc1ccncc1)C(=O)N[C@@H](CC(C)C)C(=O)N[C@@H](CC(C)C)C(=O)N[C@@H](C)C(=O)NCC(=O)NCC(=O)N1CCC[C@H]1C(=O)N[C@@H](CO)C(=O)N[C@@H](CO)C(=O)NCC(=O)N[C@@H](C)C(=O)N1CCC[C@H]1C(=O)N1CCC[C@H]1C(=O)N1CCC[C@H]1C(=O)N[C@@H](CO)C(N)=O)C(C)C)[C@@H](C)CC [Example 49] | 0.0512 nM | 0.0156 nM
